Data: US20260265271A1, “Cereblon Ligands and Uses Thereof” (REGENTS OF THE UNIVERSITY OF MICHIGAN, priority 2022, published 2026)
Structures can show the parent of a compound that is named as a salt.

Legend:
IKZF2 = target: T1, IKZF2 (Homo sapiens, UniProt Q96SW2+Q9UKS7); assay: IKZF2 HiBiT degradation assay (Jurkat-IKZF2-HiBiT); assay type: cell-based
T1 construct: host or cells: Jurkat-IKZF2-HiBiT
Protocol: Degradation of IKZF2 protein was determined by IKZF2 HiBiT assay using the Jurkat-IKZF2-HiBiT (Promega) cell line. […] Compounds were serially diluted in culture medium, and 20 μl of the diluted compounds were added to the appropriate wells of the plate. After the addition of compounds, the cells were incubated at 37° C. in an atmosphere of 5% CO2 for 24 hours. At the end of treatment, 40 ul of Nano-Glo HiBiT Lytic Detection Reagent (Promega) was added to each well, and then the plates were incubated at room temperature for 10-20 minutes. The luminescent signal was measured using a CALRIOstar plate reader (BMG Labtech). The readings were normalized to the DMSO-treated cells and the IC50 was calculated by nonlinear regression (four parameters sigmoid fitted with variable slope, least squares fit, and no constraint) analysis using the GraphPad Prism 8 software.

[1] = target: wild-type human CRBN protein (Homo sapiens, UniProt Q96SW2); assay: biochemical
Sequence of wild-type human CRBN protein (Q96SW2 whole entry): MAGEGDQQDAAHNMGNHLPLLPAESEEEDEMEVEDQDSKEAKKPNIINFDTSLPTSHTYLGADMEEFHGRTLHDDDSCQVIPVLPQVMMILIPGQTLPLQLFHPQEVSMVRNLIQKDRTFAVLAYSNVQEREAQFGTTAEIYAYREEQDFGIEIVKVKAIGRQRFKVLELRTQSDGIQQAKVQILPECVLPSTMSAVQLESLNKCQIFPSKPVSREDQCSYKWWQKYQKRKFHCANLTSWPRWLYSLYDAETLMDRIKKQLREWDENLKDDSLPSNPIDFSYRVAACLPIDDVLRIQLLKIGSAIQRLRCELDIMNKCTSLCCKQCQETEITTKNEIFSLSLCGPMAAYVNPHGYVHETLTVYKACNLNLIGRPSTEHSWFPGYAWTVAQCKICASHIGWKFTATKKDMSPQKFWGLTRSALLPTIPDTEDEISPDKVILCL

CRBN/DDB1 = CRBN/DDB1 (Homo sapiens, UniProt Q96SW2); assay: biochemical
Sequence of CRBN/DDB1 (Q96SW2 whole entry): as above
Sequence of CRBN/DDB1 (Q16531 whole entry, further chain): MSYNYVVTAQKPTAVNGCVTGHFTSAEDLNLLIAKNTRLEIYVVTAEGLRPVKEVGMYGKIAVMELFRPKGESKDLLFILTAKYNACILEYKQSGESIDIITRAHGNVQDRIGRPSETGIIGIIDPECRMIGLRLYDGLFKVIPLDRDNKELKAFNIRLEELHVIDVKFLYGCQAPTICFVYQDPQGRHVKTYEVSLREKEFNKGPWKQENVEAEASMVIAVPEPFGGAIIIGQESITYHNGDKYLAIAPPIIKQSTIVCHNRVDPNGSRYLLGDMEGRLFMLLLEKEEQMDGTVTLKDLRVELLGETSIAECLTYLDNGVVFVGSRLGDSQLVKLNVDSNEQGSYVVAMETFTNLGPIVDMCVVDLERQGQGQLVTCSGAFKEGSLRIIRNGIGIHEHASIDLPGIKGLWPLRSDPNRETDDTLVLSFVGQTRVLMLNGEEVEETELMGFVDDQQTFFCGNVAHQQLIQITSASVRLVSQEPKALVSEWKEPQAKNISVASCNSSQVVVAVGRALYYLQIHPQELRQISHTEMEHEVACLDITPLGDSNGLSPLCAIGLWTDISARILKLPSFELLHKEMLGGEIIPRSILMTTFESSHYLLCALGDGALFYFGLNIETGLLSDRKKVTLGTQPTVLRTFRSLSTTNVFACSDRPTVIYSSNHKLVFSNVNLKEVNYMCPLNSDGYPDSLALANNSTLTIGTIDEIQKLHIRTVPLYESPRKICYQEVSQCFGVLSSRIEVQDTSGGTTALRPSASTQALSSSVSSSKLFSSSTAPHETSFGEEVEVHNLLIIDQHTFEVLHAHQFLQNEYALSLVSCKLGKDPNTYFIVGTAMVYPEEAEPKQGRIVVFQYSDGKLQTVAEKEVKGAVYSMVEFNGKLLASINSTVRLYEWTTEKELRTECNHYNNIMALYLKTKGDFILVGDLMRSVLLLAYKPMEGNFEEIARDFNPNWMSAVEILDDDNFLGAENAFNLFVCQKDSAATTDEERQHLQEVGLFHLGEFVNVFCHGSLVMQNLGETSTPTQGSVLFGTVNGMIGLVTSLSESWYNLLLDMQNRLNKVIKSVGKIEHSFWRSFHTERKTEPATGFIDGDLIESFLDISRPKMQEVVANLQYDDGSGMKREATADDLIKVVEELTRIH

ER [2] = target: T2, ER (Homo sapiens, UniProt P03372); assay: ER degradation by in-cell western (ICW), T47D cells; assay type: cell-based; parameters: endogenous in cells; host or cells: T47D; details: for DC50: T47D cells, ER in-cell western, 16 hours; for Dmax: T47D, read-out: T47D Dmax (%)
T2 sequence (P03372 whole entry): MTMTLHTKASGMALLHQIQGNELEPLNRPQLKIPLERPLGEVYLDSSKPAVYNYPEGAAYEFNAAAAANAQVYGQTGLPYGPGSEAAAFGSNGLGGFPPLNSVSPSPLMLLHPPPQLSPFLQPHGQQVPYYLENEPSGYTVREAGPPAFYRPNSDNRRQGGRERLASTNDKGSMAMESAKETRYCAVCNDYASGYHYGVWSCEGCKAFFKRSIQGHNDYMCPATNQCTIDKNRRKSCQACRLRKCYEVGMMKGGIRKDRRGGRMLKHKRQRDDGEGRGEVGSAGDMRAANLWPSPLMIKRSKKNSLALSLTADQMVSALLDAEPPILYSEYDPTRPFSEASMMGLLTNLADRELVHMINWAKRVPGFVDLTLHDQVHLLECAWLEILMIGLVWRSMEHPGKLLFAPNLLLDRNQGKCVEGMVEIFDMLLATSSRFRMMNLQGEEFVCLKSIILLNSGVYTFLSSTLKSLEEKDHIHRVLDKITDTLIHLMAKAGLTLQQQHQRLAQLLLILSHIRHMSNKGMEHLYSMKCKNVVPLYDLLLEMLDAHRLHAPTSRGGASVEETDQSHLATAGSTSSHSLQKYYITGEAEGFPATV
Protocol: (§1) ERa degradative activity of compounds can be assessed in MCF-7 and T47D Cells. MCF-7 and T47D cell are seeded and are subsequently treated with the compounds at certain concentrations (e.g., 0.02 to 300 nM). DMSO can be used as vehicle control. Cells are fixed and are blocked with Intercept (PBS) Blocking Buffer (e.g., Li—COR, Odyssey Blocking Buffer), and are stained with ER (e.g., 1:500, Cell signaling) primary antibody for overnight at cold room. Secondary Antibody (e.g., IRDye 800CW Goat anti-Rabbit IgG) and CellTag 700 Stain are added in Intercept (PBS) Blocking Buffer. Finally, cell plate is placed in incubator to dry. Image and signal were captured on Odyssey@DLx Imaging System.
(§2) In-cell western blot analysis. Cells are seeded in multi-well plates (e.g., at 40,000 or 10,000 cells/well). Diluted compounds at certain concentration are added (final 0.5% DMSO) and cells are incubated for certain period of time (e.g., 16 hours). Formaldehyde (e.g., PBS:FA=9:1) is added and followed by washing with PBS. The cells are blocked with Licor blocking buffer (Li-Cor). The relative ER percentage in treated cells were obtained by comparing the values of treated wells to those in untreated and DMSO-treated wells as 100%.
(§3) In-cell western blot analysis. a. seed cells in black-sided/clear bottom 96- or 384-well plates at 40,000 or 10,000 cells/well, overnight; b. add diluted compounds (final 0.5% DMSO), 16 hours. […] RT 2 h, gentle shaking. Negative control: cells plus secondary antibodies (no primary antibodies); e. wash×4 with PBS +0.05-0.1% Tween 20, gentel shaking; f. anti-rabbit-680 and anti-mouse-800 (both 1:1000 in LiCor block +0.05% Tween20, RT 1 h, gentle shaking, no light. LI-COR: 0.2% to reduce background; g. wash×4 with PBS+0.05% Tween 20, gental shaking; h. add 100 μL or 25 μL of PBS to each well and read on CLX plate reader. The relative ER percentage in treated cells were obtained by comparing the values of treated wells to those in untreated and DMSO-treated wells as 100%.

ER [3] = target: T2, ER; assay: ER degradation by in-cell western (ICW), MCF7 cells; assay type: cell-based; parameters: endogenous in cells; host or cells: MCF-7; details: for Dmax: MCF7, read-out: MCF7 Dmax (%); for DC50: MCF7 cells, ER in-cell western, 16 hours
Protocol: as §1, §2, §3

T1 sequence (Q9UKS7 whole entry): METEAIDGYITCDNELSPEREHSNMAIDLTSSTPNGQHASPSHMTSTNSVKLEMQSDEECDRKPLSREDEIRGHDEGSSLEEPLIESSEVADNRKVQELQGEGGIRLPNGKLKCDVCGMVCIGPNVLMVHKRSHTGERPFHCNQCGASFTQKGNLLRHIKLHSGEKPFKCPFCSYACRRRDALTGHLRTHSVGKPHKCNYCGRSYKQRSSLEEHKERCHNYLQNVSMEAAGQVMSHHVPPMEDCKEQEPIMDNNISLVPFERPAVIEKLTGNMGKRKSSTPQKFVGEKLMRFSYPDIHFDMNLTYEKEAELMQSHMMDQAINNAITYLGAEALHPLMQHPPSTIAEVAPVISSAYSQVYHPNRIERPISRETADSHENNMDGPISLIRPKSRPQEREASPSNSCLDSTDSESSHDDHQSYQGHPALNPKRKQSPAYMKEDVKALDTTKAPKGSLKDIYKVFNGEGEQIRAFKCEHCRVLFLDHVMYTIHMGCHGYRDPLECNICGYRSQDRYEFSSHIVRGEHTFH
T1 sequence (Q96SW2 whole entry): as the sequence (Q96SW2 whole entry) above
T1 sequence (Q16531 2-1140 partner limits assumed): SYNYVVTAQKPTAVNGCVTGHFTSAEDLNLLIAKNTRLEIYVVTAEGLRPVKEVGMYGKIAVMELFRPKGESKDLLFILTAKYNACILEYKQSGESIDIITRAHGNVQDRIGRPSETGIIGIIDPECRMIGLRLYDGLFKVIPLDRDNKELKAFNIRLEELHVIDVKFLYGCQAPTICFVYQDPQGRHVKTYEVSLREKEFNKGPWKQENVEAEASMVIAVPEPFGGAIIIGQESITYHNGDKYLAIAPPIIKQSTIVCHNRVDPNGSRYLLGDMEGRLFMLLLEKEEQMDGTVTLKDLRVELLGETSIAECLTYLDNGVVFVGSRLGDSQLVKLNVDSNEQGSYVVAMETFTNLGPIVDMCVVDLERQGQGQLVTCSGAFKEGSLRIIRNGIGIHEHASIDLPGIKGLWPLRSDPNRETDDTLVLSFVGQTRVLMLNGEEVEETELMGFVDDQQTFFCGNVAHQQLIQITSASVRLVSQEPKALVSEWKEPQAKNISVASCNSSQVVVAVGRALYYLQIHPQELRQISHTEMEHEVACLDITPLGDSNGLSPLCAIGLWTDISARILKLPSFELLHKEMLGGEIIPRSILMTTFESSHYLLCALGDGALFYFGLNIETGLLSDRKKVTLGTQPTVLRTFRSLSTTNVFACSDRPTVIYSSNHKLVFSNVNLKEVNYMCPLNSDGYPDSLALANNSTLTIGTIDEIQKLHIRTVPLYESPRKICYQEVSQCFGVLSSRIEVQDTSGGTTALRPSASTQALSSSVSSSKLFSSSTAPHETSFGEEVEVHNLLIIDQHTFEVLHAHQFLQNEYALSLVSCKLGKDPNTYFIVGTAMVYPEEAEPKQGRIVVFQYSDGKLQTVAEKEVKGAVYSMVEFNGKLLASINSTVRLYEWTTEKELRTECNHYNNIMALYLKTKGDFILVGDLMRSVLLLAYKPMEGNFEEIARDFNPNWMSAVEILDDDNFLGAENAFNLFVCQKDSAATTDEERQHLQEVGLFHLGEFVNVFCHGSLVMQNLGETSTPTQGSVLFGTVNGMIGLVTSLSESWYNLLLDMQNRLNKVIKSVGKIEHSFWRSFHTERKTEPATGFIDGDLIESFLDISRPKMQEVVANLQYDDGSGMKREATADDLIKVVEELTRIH

| Structure (SMILES) | IC50 (CRBN/DDB1) [nM] | Dmax (ER [3]) [%] | DC50 (ER [3]) [nM] | further results |
| --- | --- | --- | --- | --- |
| O=C1CCC(N2Cc3cc4c(cc3C2=O)OC[C@@H]2CN(Cc3ccc(F)cc3)CCN42)C(=O)N1 (stereo partly drawn) [Compound C19, 3-((S)-3-(4-fluorobenzyl)-8-oxo-1,2,3,4,4a,5,8,10-octahydro-9H-pyrazino[1′,2′:4,5][1,4]oxazino[2,3-f]isoindol-9-yl)piperidine-2,6-dione] | – | – | – | DC50 (IKZF2; read-out: IKZF2 degradation DC50, Jurkat-IKZF2-HiBiT cells, 24 hours): > 2000 nM; Dmax (IKZF2; read-out: IKZF2 degradation Dmax (%)): 0%; IC50 [1]: 330 nM |
| C[C@@H]1Cc2c(ccc3[nH]ncc23)[C@@H](c2ccc(N3CCC4(CC3)CC(CN3CCN5c6cc7c(cc6OC[C@@H]5C3)C(=O)N([C@@H]3CCC(=O)NC3=O)C7)C4)cn2)N1CC1(F)CC1 [IDZ-A12, (R)-3-((S)-3-((7-(6-((6S,8R)-7-((1-fluorocyclopropyl)methyl)-8-methyl-6,7,8,9-tetrahydro-3H-pyrazolo[4,3-f]isoquinolin-6-yl)pyridin-3-yl)-7-azaspiro[3.5]nonan-2-yl)methyl)-8-oxo-1,2,3,4,4a,5,8,10-octahydro-9H-pyrazino[1′,2′:4,5][1,4]oxazino[2,3-f]isoindol-9-yl)piperidine-2,6-dione] | – | > 75 | < 1 | DC50 (ER [2]): < 1 nM; Dmax (ER [2]): > 75% |
| O=C1CC[C@H](N2Cc3cc4c(cc3C2=O)OC[C@@H]2CN(CC3CC5(CCN(c6ccc([C@@H]7c8ccc(O)cc8OC[C@@H]7c7ccccc7)cc6)CC5)C3)CCN42)C(=O)N1 [CHR-A59, (S)-3-((S)-3-((7-(4-((3S,4R)-7-hydroxy-3-phenylchroman-4-yl)phenyl)-7-azaspiro[3.5]nonan-2-yl)methyl)-8-oxo-1,2,3,4,4a,5,8,10-octahydro-9H-pyrazino[1′,2′:4,5][1,4]oxazino[2,3-f]isoindol-9-yl)piperidine-2,6-dione] | – | 50 to 75 | 1 to 10 | – |
| O=C1CC[C@@H](N2Cc3cc4c(cc3C2=O)OC[C@H]2CN(CC3CCC5(CC3)CN(c3ccc([C@H]6c7ccc(O)cc7OC[C@H]6c6ccccc6)cc3)C5)CCN42)C(=O)N1 [CHR-A118, (R)-3-((R)-3-((2-(4-((3R,4S)-7-hydroxy-3-phenylchroman-4-yl)phenyl)-2-azaspiro[3.5]nonan-7-yl)methyl)-8-oxo-1,2,3,4,4a,5,8,10-octahydro-9H-pyrazino[1′,2′:4,5][1,4]oxazino[2,3-f]isoindol-9-yl)piperidine-2,6-dione] | – | – | 1 to 10 | – |
| C[C@@H]1Cc2c([nH]c3ccccc23)[C@@H](c2cnc(N3CCC4(CC3)CC(CN3CCN5c6ccc(C(=O)N[C@H]7CCC(=O)NC7=O)nc6OC[C@H]5C3)CO4)nc2)N1CC(F)F (stereo partly drawn) [IND-A63, (4aR)-3-((8-(5-((1R,3R)-2-(2,2-difluoroethyl)-3-methyl-2,3,4,9-tetrahydro-1H-pyrido[3,4-b]indol-1-yl)pyrimidin-2-yl)-1-oxa-8-azaspiro[4.5]decan-3-yl)methyl)-N—((S)-2,6-dioxopiperidin-3-yl)-1,2,3,4,4a,5-hexahydropyrazino[1,2-d]pyrido[2,3-b][1,4]oxazine-8-carboxamide] | – | 50 to 75 | 1 to 10 | DC50 (ER [2]): 1 to 10 nM; Dmax (ER [2]): 50 to 75% |
| CC(=O)N1CCN2c3ccc4c(c3OC[C@H]2C1)CN([C@H]1CCC(=O)NC1=O)C4=O [Compound C9, (S)-3-((R)-7-acetyl-1-oxo-1,3,5,5a,6,7,8,9-octahydro-2H-pyrazino[1′,2′:4,5][1,4]oxazino[2,3-e]isoindol-2-yl)piperidine-2,6-dione] | – | – | – | IC50 [1]: 180 nM |

Second part, led by results:

| IC50 (CRBN/DDB1) [nM] | Structure (SMILES) | Dmax (ER [3]) [%] | DC50 (ER [3]) [nM] | further results |
| --- | --- | --- | --- | --- |
| 21800 | O=C1CC[C@H](NC(=O)c2cc3c(cc2F)N2CCNC[C@H]2CO3)C(=O)N1 [Compound A1, (S)—N—((S)-2,6-dioxopiperidin-3-yl)-9-fluoro-1,2,3,4,4a,5-hexahydrobenzo[b]pyrazino[1,2-d][1,4]oxazine-8-carboxamide hydrochloride] | – | – | – |
| 3640 | CN1CCN2c3cc(F)c(C(=O)N[C@H]4CCC(=O)NC4=O)cc3OC[C@@H]2C1 [Compound A2, (S)—N—((S)-2,6-dioxopiperidin-3-yl)-9-fluoro-3-methyl-1,2,3,4,4a,5-hexahydrobenzo[b]pyrazino[1,2-d][1,4]oxazine-8-carboxamide] | – | – | – |
| 430 | O=C1CC[C@H](N2Cc3cc4c(cc3C2=O)OC[C@@H]2CNCCN42)C(=O)N1 [Compound A8, (S)-3-((S)-8-oxo-3,4,4a,5-tetrahydro-1H-pyrazino [1′,2′:4,5][1,4]oxazino[2,3-f]isoindol-9(2H,8H,10H)-yl)piperidine-2,6-dione hydrochloride] | – | – | – |
| 330 | CC(C)(C)OC(=O)N1CCN2c3cc4c(cc3OC[C@@H]2C1)C(=O)N(C1CCC(=O)NC1=O)C4 (stereo partly drawn) [Compound A3, tert-butyl (4aS)-9-(2,6-dioxopiperidin-3-yl)-8-oxo-1,2,4a,5,9,10-hexahydro-8H-pyrazino[1′,2′:4,5][1,4]oxazino[2,3-f]isoindole-3(4H)-carboxylate] | – | – | – |
